Bounds are passed on as bounds.

T1 sequence (Q16602 23-461): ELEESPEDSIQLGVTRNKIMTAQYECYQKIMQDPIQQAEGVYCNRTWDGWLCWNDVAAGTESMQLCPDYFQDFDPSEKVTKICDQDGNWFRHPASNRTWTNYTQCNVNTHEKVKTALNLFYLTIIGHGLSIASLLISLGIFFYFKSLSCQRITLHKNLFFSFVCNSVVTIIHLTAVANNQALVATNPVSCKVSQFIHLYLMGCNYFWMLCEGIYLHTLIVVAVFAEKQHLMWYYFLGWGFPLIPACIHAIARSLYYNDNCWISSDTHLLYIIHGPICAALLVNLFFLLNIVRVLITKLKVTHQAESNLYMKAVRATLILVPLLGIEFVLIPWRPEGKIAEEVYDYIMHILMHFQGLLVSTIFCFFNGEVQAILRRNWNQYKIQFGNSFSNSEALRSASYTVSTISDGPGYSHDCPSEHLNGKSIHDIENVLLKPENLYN
T1 sequence (O60894 27-148): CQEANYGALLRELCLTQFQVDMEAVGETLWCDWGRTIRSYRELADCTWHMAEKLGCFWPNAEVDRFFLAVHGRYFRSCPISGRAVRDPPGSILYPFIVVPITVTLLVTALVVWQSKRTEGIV

The first assay has as its target T1, Human CGRP1 Receptor (Homo sapiens, UniProt O60894+Q16602).
T1 construct: endogenous in cells; host or cells: SK-N-MC cells (membrane homogenate)
Nature of the assay: CGRP Binding Assay ([125I]-CGRP radioligand displacement, SK-N-MC membrane homogenate).
Settings: not given
As for the experimental part:
Tissue Culture. SK-N-MC cells were grown at 37° C. in 5% CO2 as a monolayer in medium consisting of MEM with Earle's salts and L-glutamine (Gibco) supplemented with 10% fetal bovine serum (Gibco).
Cell Pellets. […] The cells were transferred from plates to polypropylene tubes (16×100 mm) and homogenized using a polytron. Homogenates were centrifuged at 32,000×g for 30 min. The pellets were resuspended in cold hypotonic lysis buffer with 0.1% mammalian protease inhibitor cocktail (Sigma) and assayed for protein concentration. The SK-N-MC homogenate was then aliquoted and stored at −80° C. until needed.
Radioligand Binding Assay. The compounds of invention were solubilized and carried through serial dilutions using 100% DMSO. Aliquots from the compound serial dilutions were further diluted 25 fold into assay buffer (50 mM Tris-Cl pH 7.5, 5 mM MgCl2, 0.005% Triton X-100) and transferred (volume 50 μl) into 96 well assay plates. […] SK-N-MC pellets were thawed, diluted in assay buffer with fresh 0.1% mammalian protease inhibitor cocktail (Sigma), and homogenized again. SK-N-MC homogenate (5 μg/well) was added in a volume of 100 μl. The assay plates were then incubated at room temperature for 2 h. Assays were stopped by addition of excess cold wash buffer (20 mM Tris-Cl pH 7.5, 0.1% BSA) immediately followed by filtration over glass fiber filters (Whatman GF/B) previously soaked in 0.5% PEI. Non-specific binding was defined with 1 μM beta-CGRP. Protein bound radioactivity was determined using a gamma or scintillation counter.
(Displacement assays read how much labelled ligand stays bound in the presence of the test substance.)
For orientation: IC50 means the concentration at which inhibition is half-maximal. For `Cc1cc(CC(NC(=O)N2CCC(N3Cc4ccccc4NC3=O)CC2)c2nccn2Cc2ccccc2)cc2cn[nH]c12` (racemic) [Example 67, (±)-N-(1-(1-Benzyl-1H-imidazol-2-yl)-2-(7-methyl-1H-indazol-5-yl)ethyl)-4-(2-oxo-1,2-dihydroquinazolin-3(4H)-yl)piperidine-1-carboxamide], the half-maximal inhibitory concentration (IC50) is less than 10 nM.

The same assay, now with this note: [125I]-CGRP displacement, SK-N-MC homogenate, room temperature 2 h; read-out: Human CGRP1 Receptor IC50.
Turning to `Cc1cc(CC(OC(=O)N2CCC(N3Cc4ccccc4NC3=O)CC2)c2cc(C=O)ccn2)cc2cn[nH]c12` (racemic) [Example 47, (±)-1-(4-Formylpyridin-2-yl)-2-(7-methyl-1H-indazol-5-yl)ethyl 4-(2-oxo-1,2-dihydroquinazolin-3(4H)-yl)piperidine-1-carboxylate], the IC50 was less than 10 nM.
As to `Cc1cc(CC(OC(=O)N2CCC(N3Cc4ccccc4NC3=O)CC2)c2cc(C(=O)O)ccn2)cc2cn[nH]c12` (racemic) [Example 48, (±)-2-(2-(7-Methyl-H-indazol-5-yl)-1-(4-(2-oxo-1,2-dihydroquinazolin-3(4H)-yl)piperidine-1-carbonyloxy)ethyl)isonicotinic acid], the IC50 lay in the range of 10 to 100 nM.
On the same count and under the same terms, the figure for `Cc1cc(CC(OC(=O)N2CCC(N3Cc4ccccc4NC3=O)CC2)c2cc(C(=O)N3CCCCC3)ccn2)cc2cn[nH]c12` (racemic) [Example 49, (±)-2-(7-Methyl-1H-indazol-5-yl)-1-(4-(piperidine-1-carbonyl)pyridin-2-yl)ethyl 4-(2-oxo-1,2-dihydroquinazolin-3(4H)-yl)piperidine-1-carboxylate] is less than 10 nM.
On the same count and under the same terms, the figure for `Cc1cc(CC(NC(=O)N2CCC(N3Cc4ccccc4NC3=O)CC2)c2ncc[nH]2)cc2cn[nH]c12` (racemic) [Example 65, (±)-N-(1-(1H-Imidazol-2-yl)-2-(7-methyl-1H-indazol-5-yl)ethyl)-4-(2-oxo-1,2-dihydroquinazolin-3(4H)-yl)piperidine-1-carboxamide] is 10 to 100 nM; for `Cc1cc(CC(NC(=O)N2CCC(N3Cc4ccccc4NC3=O)CC2)c2nccn2C)cc2cn[nH]c12` (racemic) [Example 66, (±)-N-(1-(1-Methyl-1H-imidazol-2-yl)-2-(7-methyl-1H-indazol-5-yl)ethyl)-4-(2-oxo-1,2-dihydroquinazolin-3(4H)-yl)piperidine-1-carboxamide] it is less than 10 nM; for `Cc1cc(CC(NC(=O)N2CCC(N3Cc4ccccc4NC3=O)CC2)c2nccn2Cc2cccc(F)c2)cc2cn[nH]c12` (racemic) [Example 68, (±)-N-(1-(1-(3-Fluorobenzyl)-1H-imidazol-2-yl)-2-(7-methyl-1H-indazol-5-yl)ethyl)-4-(2-oxo-1,2-dihydroquinazolin-3(4H)-yl)piperidine-1-carboxamide] it is less than 10 nM.
Take `Cc1cc(CC(NC(=O)N2CCC(N3Cc4ccccc4NC3=O)CC2)c2nccn2Cc2cc(F)cc(F)c2)cc2cn[nH]c12` (racemic) [Example 69, (±)-N-(1-(1-(3,5-Difluorobenzyl)-1H-imidazol-2-yl)-2-(7-methyl-1H-indazol-5-yl)ethyl)-4-(2-oxo-1,2-dihydroquinazolin-3(4H)-yl)piperidine-1-carboxamide]: the half-maximal inhibitory concentration (IC50) was less than 10 nM.
Regarding `Cc1cc(CC(NC(=O)N2CCC(N3Cc4ccccc4NC3=O)CC2)c2nccn2CCc2ccccc2)cc2cn[nH]c12` (racemic) [Example 70, (±)-N-(2-(7-Methyl-1H-indazol-5-yl)-1-(1-phenethyl-1H-imidazol-2-yl)ethyl)-4-(2-oxo-1,2-dihydroquinazolin-3(4H)-yl)piperidine-1-carboxamide], the IC50 is less than 10 nM.
Consider `Cc1cc(CC(NC(=O)N2CCC(N3Cc4ccccc4NC3=O)CC2)c2nccn2Cc2ccccc2F)cc2cn[nH]c12` (racemic) [Example 71, (±)-N-(1-(1-(2-Fluorobenzyl)-1H-imidazol-2-yl)-2-(7-methyl-1H-indazol-5-yl)ethyl)-4-(2-oxo-1,2-dihydroquinazolin-3(4H)-yl)piperidine-1-carboxamide], for which the concentration for half-maximal inhibition (IC50) is less than 10 nM.
As to `Cc1cc(CC(NC(=O)N2CCC(N3Cc4ccccc4NC3=O)CC2)c2nccn2Cc2ccc(F)cc2)cc2cn[nH]c12` (racemic) [Example 72, (±)-N-(1-(1-(4-Fluorobenzyl)-1H-imidazol-2-yl)-2-(7-methyl-1H-indazol-5-yl)ethyl)-4-(2-oxo-1,2-dihydroquinazolin-3(4H)-yl)piperidine-1-carboxamide], the IC50 was less than 10 nM.
Same read-out and setting: the figure for `Cc1cc(CC(NC(=O)N2CCC(N3Cc4ccccc4NC3=O)CC2)c2nccn2Cc2ccncc2)cc2cn[nH]c12` (racemic) [Example 73, (±)-N-(2-(7-Methyl-1H-indazol-5-yl)-1-(1-(pyridin-4-ylmethyl)-1H-imidazol-2-yl)ethyl)-4-(2-oxo-1,2-dihydroquinazolin-3(4H)-yl)piperidine-1-carboxamide] is less than 10 nM.
Same read-out and setting: the figure for `Cc1cc(CC(NC(=O)N2CCC(N3Cc4ccccc4NC3=O)CC2)c2nccn2Cc2cccc(C#N)c2)cc2cn[nH]c12` (racemic) [Example 74, (±)-N-(1-(1-(3-Cyanobenzyl)-1H-imidazol-2-yl)-2-(7-methyl-1H-indazol-5-yl)ethyl)-4-(2-oxo-1,2-dihydroquinazolin-3(4H)-yl)piperidine-1-carboxamide] is less than 10 nM.
Consider `Cc1cc(CC(NC(=O)N2CCC(N3Cc4ccccc4NC3=O)CC2)c2nccn2Cc2ccc(C(C)(C)C)cc2)cc2cn[nH]c12` (racemic) [Example 75, (±)-N-(1-(1-(4-tert-Butylbenzyl)-1H-imidazol-2-yl)-2-(7-methyl-1H-indazol-5-yl)ethyl)-4-(2-oxo-1,2-dihydroquinazolin-3(4H)-yl)piperidine-1-carboxamide], for which the half-inhibitory concentration (IC50) is less than 10 nM.
`Cc1cc(CC(NC(=O)N2CCC(N3Cc4ccccc4NC3=O)CC2)c2nccn2Cc2cccc(C(=O)O)c2)cc2cn[nH]c12` (racemic) [Example 76, (±)-3-((2-(2-(7-Methyl-1H-indazol-5-yl)-1-(4-(2-oxo-1,2-dihydroquinazolin-3(4H)-yl)piperidine-1-carboxamido)ethyl)-1H-imidazol-1-yl)methyl)benzoic acid]: the IC50 is less than 10 nM.
`Cc1cc(CC(NC(=O)N2CCC(N3Cc4ccccc4NC3=O)CC2)c2nccn2Cc2cccc(C(N)=O)c2)cc2cn[nH]c12` (racemic) [Example 77, (±)-N-(1-(1-(3-Carbamoylbenzyl)-1H-imidazol-2-yl)-2-(7-methyl-1H-indazol-5-yl)ethyl)-(2-oxo-1,2-dihydroquinazolin-3(4H)-yl)piperidine-1-carboxamide]: the IC50 is less than 10 nM.
On to `Cc1cc(CC(NC(=O)N2CCC(N3Cc4ccccc4NC3=O)CC2)c2nccn2-c2ccccc2[N+](=O)[O-])cc2cn[nH]c12` (racemic) [Example 79, (±)-N-(2-(7-Methyl-1H-indazol-5-yl)-1-(1-(2-nitrophenyl)-1H-imidazol-2-yl)ethyl)-4-(2-oxo-1,2-dihydroquinazolin-3(4H)-yl)piperidine-1-carboxamide], for which the IC50 was less than 10 nM.
As for `Cc1cc(CC(NC(=O)N2CCC(N3Cc4cccc(F)c4NC3=O)CC2)c2nnn[nH]2)cc2cn[nH]c12` (racemic) [Example 80, (±)-4-(8-Fluoro-2-oxo-1,2-dihydroquinazolin-3 [4H]-yl)-N-(2{7-methyl-1H-indazol-5-yl}-1-{1H-tetrazol-5-yl}ethyl)piperidin-1-carboxamide], the IC50 lay within 100 to 1000 nM.
For the molecule `Cc1cc(CC(NC(=O)N2CCC(N3Cc4cccc(F)c4NC3=O)CC2)c2nnnn2CC2CCNCC2)cc2cn[nH]c12` (racemic) [Example 81, (±)-4-(8-Fluoro-2-oxo-1,2-dihydroquinazolin-3(4H)-yl)-N-(2-[7-methyl-1H-indazol-5-yl]-1-[1-(piperidin-4-ylmethyl)-1H-tetrazol-5-yl]ethyl)piperidin-1-carboxamide], the IC50 is less than 10 nM.
Regarding `Cc1cc(CC(NC(=O)N2CCC(N3Cc4cccc(F)c4NC3=O)CC2)c2nnn(CC3CCNCC3)n2)cc2cn[nH]c12` (racemic) [Example 82, (±)-4-(8-Fluoro-2-oxo-1,2-dihydroquinazolin-3(4H)-yl)-N-(2-[7-methyl-1H-indazol-5-yl]-1-[2-(piperidin-4-ylmethyl)-1H-tetrazol-5-yl]ethyl)piperidin-1-carboxamide], the 50% inhibitory concentration (IC50) was 10 to 100 nM.
On the same count and under the same terms, the figure for `Cc1cc(CC(NC(=O)N2CCC(N3Cc4cccc(F)c4NC3=O)CC2)c2nnc3ccccn23)cc2cn[nH]c12` (racemic) [Example 83, (±)-N-(1-([1,2,4]Triazolo [4,3-a]pyridin-3-yl)-2-(7-methyl-1H-indazol-5-yl)ethyl)-4-(8-fluoro-2-oxo-1,2-dihydroquinazolin-3(4H)-yl)piperidine-1-carboxamide] is less than 10 nM; for `Cc1cc(CC(NC(=O)N2CCC(N3Cc4ccccc4NC3=O)CC2)c2nnnn2CC(C)(C)C)cc2cn[nH]c12` (racemic) [Example 84, (±)-N-(2-(7-Methyl-1H-indazol-5-yl)-1-(1-neopentyl-1H-tetrazol-5-yl)ethyl)-4-(2-oxo-1,2-dihydroquinazolin-3(4H)-yl)piperidine-1-carboxamide] it is less than 10 nM.

For the origin of these results see US7569578B2, “Heterocyclic anti-migraine agents” (Bristol-Meyers Squibb Company, priority 2003, dated 2009).
